Data on one molecule can be found in publication PMC9186362, “Design and biological evaluation of substituted 5,7-dihydro-6H-indolo[2,3-c]quinolin-6-one as novel selective Haspin inhibitors” (Journal of Enzyme Inhibition and Medicinal Chemistry, 2022).

Common to all, as to assay: SelectScreen ZLYTE
Common to all, as to assay type: biochemical

Test [1] addresses CDK17/cyclin Y (Homo sapiens, UniProt Q00537). As to conditions: ATP Km, read-out: Percentage of inhibition. In short, it runs like this: (§1)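 Each panel kinase received the compound at a fixed 1 μM; inhibition percentages were recorded, with ≥80% used as the cut-off for hits.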
The target of test [2] is T1, FGFR2 (Homo sapiens, UniProt P21802).
T1 construct: purchased Life Technologies
T1 sequence (P21802 22-821): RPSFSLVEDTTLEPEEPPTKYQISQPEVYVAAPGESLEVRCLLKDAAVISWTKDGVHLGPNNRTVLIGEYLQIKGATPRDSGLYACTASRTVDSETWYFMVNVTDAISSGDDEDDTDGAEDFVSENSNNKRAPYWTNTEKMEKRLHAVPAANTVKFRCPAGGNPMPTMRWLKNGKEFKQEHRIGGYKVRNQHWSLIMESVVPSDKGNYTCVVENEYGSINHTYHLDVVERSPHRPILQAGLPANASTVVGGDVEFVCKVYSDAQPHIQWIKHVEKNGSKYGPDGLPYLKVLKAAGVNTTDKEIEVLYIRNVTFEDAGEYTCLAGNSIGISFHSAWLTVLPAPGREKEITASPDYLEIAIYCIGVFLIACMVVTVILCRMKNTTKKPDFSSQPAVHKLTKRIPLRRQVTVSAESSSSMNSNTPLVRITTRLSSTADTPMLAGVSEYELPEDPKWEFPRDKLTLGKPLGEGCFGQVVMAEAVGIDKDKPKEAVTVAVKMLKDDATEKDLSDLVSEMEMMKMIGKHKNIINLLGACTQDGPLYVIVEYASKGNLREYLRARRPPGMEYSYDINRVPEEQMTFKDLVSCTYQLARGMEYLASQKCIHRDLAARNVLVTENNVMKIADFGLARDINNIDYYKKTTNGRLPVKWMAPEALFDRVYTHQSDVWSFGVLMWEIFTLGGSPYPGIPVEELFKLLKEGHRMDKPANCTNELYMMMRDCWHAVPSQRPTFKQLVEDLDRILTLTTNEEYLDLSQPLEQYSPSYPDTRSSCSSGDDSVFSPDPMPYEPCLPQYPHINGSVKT
The settings on record: ATP Km, read-out: Percentage of inhibition. In short, it runs like this:
as §1

For test [3], the target named is T2, KIT V559D (Homo sapiens, UniProt P10721, V559D).
T2 construct: purchased Life Technologies
T2 sequence (P10721 26-976 V559D): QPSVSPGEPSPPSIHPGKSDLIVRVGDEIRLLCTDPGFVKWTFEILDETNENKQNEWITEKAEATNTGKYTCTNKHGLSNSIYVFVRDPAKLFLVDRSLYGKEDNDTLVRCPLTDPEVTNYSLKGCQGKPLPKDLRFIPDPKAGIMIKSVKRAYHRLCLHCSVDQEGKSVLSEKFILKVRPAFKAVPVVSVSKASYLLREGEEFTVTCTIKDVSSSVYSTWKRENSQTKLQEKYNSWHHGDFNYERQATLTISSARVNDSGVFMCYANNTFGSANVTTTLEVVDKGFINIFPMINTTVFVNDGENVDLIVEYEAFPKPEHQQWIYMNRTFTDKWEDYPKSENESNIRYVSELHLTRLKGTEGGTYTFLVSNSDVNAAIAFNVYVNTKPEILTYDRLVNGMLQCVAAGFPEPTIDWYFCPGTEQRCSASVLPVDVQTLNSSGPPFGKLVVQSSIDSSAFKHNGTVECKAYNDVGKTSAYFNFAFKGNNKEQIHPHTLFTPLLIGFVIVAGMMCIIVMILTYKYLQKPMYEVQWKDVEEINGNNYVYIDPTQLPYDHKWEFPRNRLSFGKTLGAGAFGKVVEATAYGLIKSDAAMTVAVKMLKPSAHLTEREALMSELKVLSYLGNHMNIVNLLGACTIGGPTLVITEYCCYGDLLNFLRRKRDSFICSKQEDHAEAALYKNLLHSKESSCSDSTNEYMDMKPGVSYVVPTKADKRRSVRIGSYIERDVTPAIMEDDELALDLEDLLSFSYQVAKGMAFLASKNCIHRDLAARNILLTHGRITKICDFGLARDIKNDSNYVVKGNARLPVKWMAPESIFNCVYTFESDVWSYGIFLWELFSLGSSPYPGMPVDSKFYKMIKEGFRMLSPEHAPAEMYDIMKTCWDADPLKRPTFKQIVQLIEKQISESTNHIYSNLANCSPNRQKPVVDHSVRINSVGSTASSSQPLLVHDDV
As to conditions: ATP Km, read-out: Percentage of inhibition. In short, it runs like this: as §1

The target of test [4] is T3, MAPK11 (p38 beta) (Homo sapiens, UniProt Q15759).
T3 construct: purchased Life Technologies (SelectScreen)
T3 sequence (Q15759 whole entry): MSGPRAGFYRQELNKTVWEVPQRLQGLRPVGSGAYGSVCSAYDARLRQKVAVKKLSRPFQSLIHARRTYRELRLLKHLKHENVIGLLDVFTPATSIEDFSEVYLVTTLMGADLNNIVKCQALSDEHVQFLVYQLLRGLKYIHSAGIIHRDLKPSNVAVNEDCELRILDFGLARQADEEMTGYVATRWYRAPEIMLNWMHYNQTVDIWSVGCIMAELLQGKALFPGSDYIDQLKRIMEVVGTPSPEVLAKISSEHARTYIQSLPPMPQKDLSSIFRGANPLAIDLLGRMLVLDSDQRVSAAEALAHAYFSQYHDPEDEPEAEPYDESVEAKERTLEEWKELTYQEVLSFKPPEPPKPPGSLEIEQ
As to conditions: ATP Km, read-out: Percentage of inhibition. In short, it runs like this:
as §1

In test [5] the target is PDK1 (Homo sapiens, UniProt O15530). The settings on record: ATP 100 µM, read-out: Percentage of inhibition. In short, it runs like this:
as §1

In test [6] the target is T4, PIM2 (Homo sapiens, UniProt Q9P1W9).
T4 construct: purchased Life Technologies (SelectScreen Whole Panel service)
T4 sequence (Q9P1W9 whole entry): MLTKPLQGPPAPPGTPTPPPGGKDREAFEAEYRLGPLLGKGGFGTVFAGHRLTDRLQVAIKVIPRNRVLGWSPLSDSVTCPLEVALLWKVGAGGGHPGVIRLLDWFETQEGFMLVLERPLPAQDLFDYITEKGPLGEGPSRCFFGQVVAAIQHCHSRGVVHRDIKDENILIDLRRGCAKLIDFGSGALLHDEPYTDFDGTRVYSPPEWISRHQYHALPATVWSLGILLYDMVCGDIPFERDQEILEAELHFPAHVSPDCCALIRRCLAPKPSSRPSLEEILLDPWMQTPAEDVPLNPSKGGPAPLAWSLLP
As to conditions: ATP Km, read-out: Percentage of inhibition. In a few lines: as §1

The target in test [7] is T5, SGK (SGK1) (Homo sapiens, UniProt O00141).
T5 construct: purchased Life Technologies
T5 sequence (O00141 whole entry): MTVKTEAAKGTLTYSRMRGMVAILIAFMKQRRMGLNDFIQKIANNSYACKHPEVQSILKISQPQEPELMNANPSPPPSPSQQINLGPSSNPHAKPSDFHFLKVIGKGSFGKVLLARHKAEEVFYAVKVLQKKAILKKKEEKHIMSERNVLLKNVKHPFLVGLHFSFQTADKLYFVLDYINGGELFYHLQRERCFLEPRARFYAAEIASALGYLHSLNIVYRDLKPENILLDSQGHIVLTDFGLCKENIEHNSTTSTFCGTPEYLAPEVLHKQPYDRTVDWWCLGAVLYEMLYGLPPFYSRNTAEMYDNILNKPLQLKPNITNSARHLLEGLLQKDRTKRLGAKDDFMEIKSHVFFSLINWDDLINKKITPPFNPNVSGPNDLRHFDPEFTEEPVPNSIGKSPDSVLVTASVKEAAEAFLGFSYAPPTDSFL
The settings on record: ATP Km, read-out: Percentage of inhibition. In a few lines: as §1

Sequence of PDK1 (O15530 whole entry): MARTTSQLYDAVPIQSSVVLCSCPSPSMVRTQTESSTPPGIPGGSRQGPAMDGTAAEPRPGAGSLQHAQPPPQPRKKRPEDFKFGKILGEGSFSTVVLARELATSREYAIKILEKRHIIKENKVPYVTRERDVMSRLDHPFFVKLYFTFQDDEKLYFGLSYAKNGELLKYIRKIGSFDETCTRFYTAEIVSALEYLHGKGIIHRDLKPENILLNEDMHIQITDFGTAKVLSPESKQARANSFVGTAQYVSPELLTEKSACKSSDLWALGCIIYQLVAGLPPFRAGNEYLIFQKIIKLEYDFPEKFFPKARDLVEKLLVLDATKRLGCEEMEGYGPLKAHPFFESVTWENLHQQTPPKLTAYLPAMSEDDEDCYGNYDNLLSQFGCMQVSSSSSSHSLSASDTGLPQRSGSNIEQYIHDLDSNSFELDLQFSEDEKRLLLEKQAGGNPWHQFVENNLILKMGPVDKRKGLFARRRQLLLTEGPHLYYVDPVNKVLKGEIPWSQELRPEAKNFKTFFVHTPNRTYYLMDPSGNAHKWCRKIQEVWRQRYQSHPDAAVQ
Sequence of CDK17/cyclin Y (Q00537 whole entry): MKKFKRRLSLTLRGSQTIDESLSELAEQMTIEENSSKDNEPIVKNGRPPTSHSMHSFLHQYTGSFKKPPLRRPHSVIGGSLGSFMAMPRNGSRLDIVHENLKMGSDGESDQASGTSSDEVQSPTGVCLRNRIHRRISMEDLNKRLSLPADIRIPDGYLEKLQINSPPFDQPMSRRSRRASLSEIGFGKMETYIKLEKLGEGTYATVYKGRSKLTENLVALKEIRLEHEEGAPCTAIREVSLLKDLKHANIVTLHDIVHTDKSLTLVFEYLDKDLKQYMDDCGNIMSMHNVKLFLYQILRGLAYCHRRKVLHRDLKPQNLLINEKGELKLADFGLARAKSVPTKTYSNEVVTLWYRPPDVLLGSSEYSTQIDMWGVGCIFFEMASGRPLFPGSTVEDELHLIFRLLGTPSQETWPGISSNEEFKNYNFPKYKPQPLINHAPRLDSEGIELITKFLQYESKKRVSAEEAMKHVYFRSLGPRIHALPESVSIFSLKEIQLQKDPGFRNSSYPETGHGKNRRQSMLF
Sequence of CDK17/cyclin Y (Q8ND76 whole entry partner): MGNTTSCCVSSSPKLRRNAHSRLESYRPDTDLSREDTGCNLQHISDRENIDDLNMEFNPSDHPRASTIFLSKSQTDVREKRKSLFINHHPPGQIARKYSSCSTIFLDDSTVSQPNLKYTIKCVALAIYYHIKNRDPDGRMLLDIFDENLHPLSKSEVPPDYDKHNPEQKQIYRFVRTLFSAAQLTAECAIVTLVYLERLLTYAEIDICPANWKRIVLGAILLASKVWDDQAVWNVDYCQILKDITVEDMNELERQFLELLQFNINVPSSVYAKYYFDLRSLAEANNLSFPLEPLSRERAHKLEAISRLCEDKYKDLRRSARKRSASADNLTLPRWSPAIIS

By inhibition is commonly meant the drop in the measured response relative to a control, in per cent. For the molecule `COc1ccc2[nH]c3c(=O)[nH]c4ccc(O)cc4c3c2c1` [Compound 55, 2-Hydroxy-10-methoxy-5,7-dihydro-6H-indolo[2,3-c]quinolin-6-one], the inhibition at 1 µM turned out to be 20% in test [1]; 42% in test [2]; 37% in test [3]; 8% in test [4]; 15% in test [5]; 18% in test [6]. For the same molecule, the inhibition at 1 µM in test [7] stood at 29%.
